Measured values published in patent EP0943615A1, “1,4-DIHYDROPYRIDINE DERIVATIVES” (Nikken Chemicals Company, Limited, priority 1996, dated 1998).
Several values for one entry are separate records, joined by “and”; a condition that tells them apart may be missing. Equal entries are not always repeated. Where two headings read alike, the source gives them in different places.

What was measured:
[1] = tested on: VCR resistant murine leukemia (P388/VCR) cells; experiment: In vivo test: overcoming resistance to vincristine in VCR resistant murine leukemia cell bearing mice; design: species or system CDF1 male mice; settings: P388/VCR bearing CDF1 mice, VCR 100 µg/kg alone or with compound 100 mg/kg, intraperitoneally for 5 days; for Effect of overcoming resistance T/V (%): T/C of combination over T/C of VCR alone x 100; for Rate of prolongation of life T/C (%): with respect to controls
Experimental: 10^6 VCR resistant murine leukemia (P388/VCR) cells were transplanted intraperitoneally into groups of six CDF1 male mice, then the compound of the present invention (100 mg/kg) and VCR (100 µg/kg) were administered intraperitoneally for 5 days. […] Effect of overcoming resistance to anti-cancer drug (T/V) % = [(Rate of prolongation of life using VCR and present compound (T/C))/(Rate of prolongation of life using VCR alone (T/C))] x 100 [formula]

[2] = tested on: VJ-300 cells; experiment: In vitro test of action suppressing proliferation of cancer cells, combined administration of vincristine, resistant cells; assay type: cell-based, Human; settings: VCR alone or VCR + test compound 1 µg/ml, LD50 of VCR relative to VCR alone in KB cells = 1
Experimental: (§1) As the incubation solutions, use was made of 10% fetal calf serum (Flow Laboratories) and Eagle MEM medium (Nissui Seiyaku) containing 0.292 mg/ml of L-glutamine (Flow Laboratories). The tests of the action for overcoming resistance to anti-cancer drugs or action for increasing the effect of the anti-cancer drug with the combined administration of the anti-cancer drug doxorubicin (i.e., adriamycin, ADM) and the test compound were performed as follows:
(§2) The test cells were suspended in incubation solutions and adjusted to a cell density of about 200 cells/ml. The cell suspensions were injected in 2 ml amounts into petri dishes and were incubated in a CO2 gas incubator (5% CO2, 95% air) at 37°C for 24 hours. Then, 5 µl of a predetermined concentration of the aqueous ADM solution and a predetermined concentration of a DMSO solution of the test compound were added, then the incubation was continued for a further 7 days. After the end of the incubation, the result was immobilized with methanol, Giemsa stained and measured for the number of colonies per dish. The results were used to prepare a volume-reaction curve. […] The results are shown in Table 8 to Table 10 using the concentration of LD50 of ADM in the ADM alone group by KB cells as the resistance degree 1 and calculating the resistances of the following LD50 concentrations as relative ratios.
The same method as in Test Example 1 was used to test the action of vincristine (VCR) on anti-cancer drugs, prepare a volume-reaction curve, and calculate the resistances.

[3] = tested on: thoracic aorta of the rat; experiment: Action easing KCl contraction in rat arteries (aortic ring, Magnus tube); settings: read-out: IC50 value (x 10^-6 M)
[4] = tested on: VJ-300 cells; experiment: In vitro test of action suppressing proliferation of cancer cells, combined administration of doxorubicin (colony formation), resistant cells; assay type: cell-based, Human; settings: ADM alone or ADM + test compound 1 µg/ml, LD50 of ADM relative to ADM alone in KB cells = 1, 7 days incubation, colony count
Experimental: as §1, with “Human rhinopharynx cancer derived KB cells (i.e., sensitive cells) and their multi-drug resistant clone VJ-300 cells (i.e., resistant cells) were used as the test cells. As” for “As”
as §2, with “ratios. […]” for “ratios.”

[5] = Acute toxicity test; settings: mouse, in vivo, ip; ddY male mice, intraperitoneally, suspended in 0.5% CMC-Na with 0.1% Tween 80, observed up until 7 days
Experimental: • Animals used: ddY male mice (SLC Japan), 4-5 weeks old, three to five mice per group. • Test method: The compound of the present invention was suspended in 0.5% sodium carboxymethylcellulose (CMC-Na) containing 0.1% Tween 80. It was administered to the mice intraperitoneally in amounts from 1000 mg/kg to 250 mg/kg in groups of three to five mice until no more deaths were observed. The survival of the animals was observed up until 7 days after administration.

[6] = 50% inhibitory concentration of hyperpotassium contraction, 50mM potassium chloride, rat thoracic aorta ring, cumulative addition

SMILES | Average days of survival ([1]; 100 mg/kg) | Effect of overcoming resistance T/V (%) [1] [%] | Rate of prolongation of life T/C (%) ([1]; 100 mg/kg) | Degree of resistance for VCR VJ-300 [2] | IC50 [3, 6] [µM] | Degree of resistance for ADM VJ-300 [4] | Average days of survival [1] | Rate of prolongation of life T/C (%) [1] [%] | LD50 at 168 h [5] [mg/kg] | IC50 ([3]; Rattus norvegicus) [µM]
CC[C@]1(O)C[C@H]2CN(CCc3c([nH]c4ccccc34)[C@@](C(=O)OC)(c3cc4c(cc3OC)N(C=O)[C@H]3[C@@](O)(C(=O)OC)[C@H](OC(C)=O)[C@]5(CC)C=CCN6CC[C@]43[C@@H]65)C2)C1 [VCR, vincristine, reference compound] | 11.3 and 9.8 and 12.3 | 100 | 96% and 103% and 109% | 483 - 952 |  |  |  |  |  | 
COC(=O)C1=C(C)NC(C)=C(C(=O)OCCN(C)Cc2ccccc2)C1c1cccc([N+](=O)[O-])c1 (stereo not shown) [Nicardipine] |  |  |  |  | 0.26 |  |  |  |  | 
CCCCCC1C(C(=O)OCCCc2cccnc2)=C(C)NC(c2ccccc2)=C1C(=O)OCC (stereo not shown) [Compound 15, 6-methyl-4-pentyl-2-phenyl-1,4-dihydropyridin-3,5-dicarboxylate 3-ethylester, 5-[3-(3-pyridyl)propyl]ester] |  | 128 |  | 6.5 |  | 3.2 | 15.7 | 139 |  | 
CCOC(=O)C1=C(c2ccc(-n3c(C)nc4ncccc43)cc2)NC(C)=C(C(=O)OCCCc2cccnc2)C1C(C)C (stereo not shown) [Compound 1, 4-isopropyl-6-methyl-2-[4-(2-methylimidazo[4,5-b]pyridin-1-yl)phenyl]-1,4-dihydropyridin-3,5-dicarboxylate 3-ethylester, 5-[3-(3-pyridyl)propyl]ester] |  | 113 |  |  |  | 2.4 | 12.8 | 108 | > 1000 | 
CCCCCC1C(C(=O)OCCCc2cccnc2)=C(C)NC(c2cccnc2)=C1C(=O)OCC (stereo not shown) [Compound 16, 6-methyl-4-pentyl-2-(3-pyridyl)-1,4-dihydropyridin-3,5-dicarboxylate 3-ethylester, 5-[3-(3-pyridyl)propyl]ester] |  | 143 |  |  |  | 3.0 | 16.2 | 137 | > 1000 | 
CCOC(=O)C1=C(c2ccc(-n3c(C)nc4cnccc43)cc2)NC(C)=C(C(=O)OCCCc2cccnc2)C1C(C)C (stereo not shown) [Compound 2, 4-isopronyl-6-methyl-2-[4-(2-methylimidazo[4,5-c]pyridin-1-yl)phenyl]-1,4-dihydronyridin-3,5-dicarboxylate 3-ethylester, 5-[3-(3-pyridyl)propyl]ester] |  |  |  | 9.6 | > 30 | 2.7 |  |  | > 1000 | 
CCOC(=O)C1=C(c2ccc(-n3c(C)nc4cnccc43)cc2)NC(C)=C(C(=O)OC/C=C/c2cccnc2)C1CCc1ccccc1 (stereo not shown) [Compound 24, 6-methyl-2-[4-(2-methylimidazo[4,5-c]pyridin-1-yl)phenyl]-4-(2-phenyl)ethyl-1,4-dihydropyridin-3,5-dicarboxylate 3-ethylester, 5-[(E)-3-(3-pyridyl)-2-propenyl]ester] |  | 136 |  |  |  | 1.1 | 13.3 | 140 | > 1000 | 
CCCCCC1C(C(=O)OC/C=C/c2cccnc2)=C(C)NC(c2ccc(-n3c(C)nc4cnccc43)cc2)=C1C(=O)OCC (stereo not shown) [Compound 23, 6-methyl-2-[4-(2-methylimidazo[4,5-c]pyridin-1-yl)phenyl]-4-pentyl-1,4-dihydropyridin-3,5-dicarboxylate 3-ethylester, 5-[(E)-3-(3-pyridyl)-2-propenyl]ester] |  | 138 |  |  |  | 1.2 | 13.5 | 142 | > 1000 | 
COc1ccc(CCN(C)CCCC(C#N)(c2ccc(OC)c(OC)c2)C(C)C)cc1OC (stereo not shown) [Verapamil] |  |  |  |  |  |  |  |  |  | 1.43
CCOC(=O)C1=C(c2ccc(-n3ccnc3)cc2)NC(C)=C(C(=O)OC/C=C/c2cccnc2)C1/C=C/c1ccccc1 (stereo not shown) [Compound 33, 2-[4-(1-imidazolyl)phenyl]-6-methyl-4-[(E)-2-phenylethenyl]-1,4-dihydropyridin-3,5-dicarboxylate 3-ethylester, 5-[(E)-3-(3-pyridyl)-2-propenyl)ester] |  |  |  |  |  | 1.4 |  |  | > 1000 | 
CCCCCC1C(C(=O)OCCCc2cccnc2)=C(C)NC(c2ccc(-n3c(C)nc4ncccc43)cc2)=C1C(=O)OCC (stereo not shown) [Compound 3, 6-methyl-2-[4-(2-methylimidazo[4,5-b]pyridin-1-yl)phenyl]-4-pentyl-1,4-dihydropyridin-3,5-dicarboxylate 3-ethylester, 5-[3-(3-pyridyl)propyl]ester] |  | 133 |  | 7.1 |  | 1.2 | 15.0 | 127 |  | 
CCOC(=O)C1=C(c2ccc(-n3ccnc3)cc2)NC(C)=C(C(=O)OCCCc2cccnc2)C1/C=C/c1ccccc1 (stereo not shown) [Compound 43, 2-[4-(1-imidazolyl)phenyl]-6-methyl-4-[(E)-2-phenylethenyl]-1,4-dihydropyridin-3,5-dicarboxylate 3-ethylester, 5-[3-(3-pyridyl)propyl]ester] |  | 137 |  |  |  | 1.4 | 13.4 | 141 |  | 
